Test results published in the NIST ThermoML archive (doi:10.1021/je700260f).

Settings: 323.14 K, Liquid, Vibrating tube method

FC(C(F)(F)F)C(F)(F)F [1,1,1,2,3,3,3-heptafluoropropane]
Settings | mass density [kg/m3]
4100 kPa | 1311
4120 kPa | 1311.1
4140 kPa | 1311.5
4170 kPa | 1311.8
4190 kPa | 1312
4220 kPa | 1312.3
4240 kPa | 1312.4
4270 kPa | 1312.8
4290 kPa | 1313.1
4310 kPa | 1313.2
4330 kPa | 1313.5
4360 kPa | 1313.8
4380 kPa | 1313.9
4400 kPa | 1314.2
4420 kPa | 1314.6
4440 kPa | 1314.6
4470 kPa | 1314.9
4500 kPa | 1315.2
4510 kPa | 1315.3
4540 kPa | 1315.5
4560 kPa | 1315.8
4590 kPa | 1316
4610 kPa | 1316.2
4640 kPa | 1316.6
4660 kPa | 1316.8
4690 kPa | 1317.1
4710 kPa | 1317.3
4740 kPa | 1317.6
4960 kPa | 1319.7
4980 kPa | 1320.1
5020 kPa | 1320.3
5040 kPa | 1320.6
5070 kPa | 1320.9
5100 kPa | 1321.1
5130 kPa | 1321.4
5150 kPa | 1321.7
5180 kPa | 1321.7
5200 kPa | 1322
5220 kPa | 1322.3
5250 kPa | 1322.6
5280 kPa | 1322.9
5310 kPa | 1323.2
5330 kPa | 1323.3
5360 kPa | 1323.7
5390 kPa | 1323.9
5420 kPa | 1324.1
5440 kPa | 1324.3
5470 kPa | 1324.7
5490 kPa | 1324.9
5520 kPa | 1325.2
5540 kPa | 1325.4
5570 kPa | 1325.7
5600 kPa | 1325.9
5630 kPa | 1326.2
5650 kPa | 1326.4
5670 kPa | 1326.6
5960 kPa | 1329.4
5990 kPa | 1329.5
6010 kPa | 1329.7
6030 kPa | 1330
6050 kPa | 1330
6080 kPa | 1330.3
6100 kPa | 1330.6
6120 kPa | 1330.7
6140 kPa | 1330.8
6160 kPa | 1331.1
6180 kPa | 1331.2
6200 kPa | 1331.4
6230 kPa | 1331.8
6240 kPa | 1331.8
6270 kPa | 1332
6290 kPa | 1332.4
6310 kPa | 1332.4
6330 kPa | 1332.6
6350 kPa | 1333
6380 kPa | 1333.1
6390 kPa | 1333.3
6410 kPa | 1333.5
6463 kPa | 1333.8
6556 kPa | 1334.6
6581 kPa | 1334.8
6778 kPa | 1336.5
6803 kPa | 1336.7
6825 kPa | 1337
6840 kPa | 1337.1
6865 kPa | 1337.3
6881 kPa | 1337.4
6903 kPa | 1337.7
6923 kPa | 1337.8
6947 kPa | 1338.1
6974 kPa | 1338.2
7006 kPa | 1338.7
7056 kPa | 1338.9
7083 kPa | 1339.2
7103 kPa | 1339.4
7124 kPa | 1339.5
7147 kPa | 1339.7
7168 kPa | 1339.9
7194 kPa | 1340.2
7215 kPa | 1340.4
7245 kPa | 1340.6
7268 kPa | 1340.7
7292 kPa | 1341
7328 kPa | 1341.3
7350 kPa | 1341.5
7375 kPa | 1341.7
7395 kPa | 1341.7
7423 kPa | 1342.1
7444 kPa | 1342.2
7468 kPa | 1342.4
7492 kPa | 1342.6
7516 kPa | 1342.8
7540 kPa | 1343.1
7566 kPa | 1343.2
7592 kPa | 1343.5
7619 kPa | 1343.7
7640 kPa | 1344
7661 kPa | 1344.2
7683 kPa | 1344.2
7702 kPa | 1344.3
7719 kPa | 1344.5
7741 kPa | 1344.7
7761 kPa | 1344.8
7781 kPa | 1345
7801 kPa | 1345.1
7818 kPa | 1345.3
7837 kPa | 1345.4
7859 kPa | 1345.7
7878 kPa | 1345.9
7903 kPa | 1346
7924 kPa | 1346
7964 kPa | 1346.4
8025 kPa | 1347
8049 kPa | 1347.2
8068 kPa | 1347.2
8087 kPa | 1347.4
8101 kPa | 1347.6
8118 kPa | 1347.7
8142 kPa | 1347.8
8162 kPa | 1348.1
8181 kPa | 1348.2
8197 kPa | 1348.3
8219 kPa | 1348.6
8234 kPa | 1348.6
8250 kPa | 1348.9
8266 kPa | 1348.7
8284 kPa | 1349
8300 kPa | 1349.3
8316 kPa | 1349.2
8385 kPa | 1349.8
8410 kPa | 1350.2
8432 kPa | 1350.1
8450 kPa | 1350.4
8914 kPa | 1353.9
8936 kPa | 1354.2
8952 kPa | 1354.1
8977 kPa | 1354.5
8991 kPa | 1354.6
9010 kPa | 1354.7
9030 kPa | 1354.9
9051 kPa | 1354.9
9072 kPa | 1355.2
9092 kPa | 1355.3
9115 kPa | 1355.4
9133 kPa | 1355.7
9154 kPa | 1355.8
9171 kPa | 1355.9
9191 kPa | 1356.1
9214 kPa | 1356.3
9238 kPa | 1356.3
9264 kPa | 1356.7
9290 kPa | 1356.9
9305 kPa | 1357
9326 kPa | 1357.1
9347 kPa | 1357.2
9371 kPa | 1357.4
9389 kPa | 1357.5
9411 kPa | 1357.8
9432 kPa | 1357.9
9459 kPa | 1358.1
9483 kPa | 1358.2
9503 kPa | 1358.4
9521 kPa | 1358.4
9543 kPa | 1358.6
9559 kPa | 1358.9
9574 kPa | 1358.9
9596 kPa | 1359
9618 kPa | 1359.2
9639 kPa | 1359.5
9657 kPa | 1359.5
9681 kPa | 1359.8
9700 kPa | 1359.9
9913 kPa | 1361.5
9929 kPa | 1361.6
9948 kPa | 1361.8
9976 kPa | 1361.9
9997 kPa | 1362.1
10019 kPa | 1362.3
10043 kPa | 1362.2
10066 kPa | 1362.5
10083 kPa | 1362.6
10105 kPa | 1362.8
10130 kPa | 1363
10153 kPa | 1363.3
10170 kPa | 1363.3
